From ChEMBL document CHEMBL3091372, “Design, synthesis, and biological testing of novel naphthoquinones as substrate-based inhibitors of the quinol/fumarate reductase from Wolinella succinogenes” (J Med Chem, 2013)
Active and inactive are the calls of the source. The rule behind the calls is not given here.

Tests used:
Wolinella succinogenes [1] = experiment: Inhibition of Wolinella succinogenes quinol/fumarate reductase at 20 uM
Wolinella succinogenes [2] = experiment: Inhibition of Wolinella succinogenes succinate/quinone reductase at 20 uM
[3] = biological target: T1, NAD(P)H dehydrogenase [quinone] 1 (Rattus norvegicus) (UniProt P05982); experiment: Inhibition of rat DT-diaphorase assessed as reduction of cytochrome c at 2 uM
T1 sequence (whole entry): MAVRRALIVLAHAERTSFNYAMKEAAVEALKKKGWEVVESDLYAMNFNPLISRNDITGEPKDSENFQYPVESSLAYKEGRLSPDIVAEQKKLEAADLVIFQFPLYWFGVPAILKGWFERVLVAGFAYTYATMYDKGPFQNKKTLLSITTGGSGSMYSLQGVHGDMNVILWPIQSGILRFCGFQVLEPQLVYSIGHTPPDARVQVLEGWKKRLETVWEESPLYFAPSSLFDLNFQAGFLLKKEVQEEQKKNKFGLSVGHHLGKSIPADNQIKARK

[4] = Inhibition of Wolinella succinogenes succinate/quinone reductase
[5] = Inhibition of Wolinella succinogenes quinol/fumarate reductase

SMILES | inhibition activity (active/not active) (Wolinella succinogenes [1]) | inhibition call (active/not active) (Wolinella succinogenes [2]) | inhibition [3] | IC50 [4] [nM] | IC50 [5] [nM]
CCCCCCCCCCC1=C(OC)C(=O)c2ccccc2C1=O | Active | Active |  |  | 
CCC1=C(OC)C(=O)c2ccccc2C1=O | Active | Active |  |  | 
O=C1C(O)=C(CCCCCCCCCCBr)C(=O)c2ccccc21 | inactive | inactive |  |  | 
O=C1C(O)=C(CCCc2ccccc2)C(=O)c2ccccc21 | Active | Active |  |  | 
CCCCCCCCCCC1=C(O)C(=O)c2ccccc2C1=O | Active | Active |  |  | 
CCCCCCC1=C(Br)C(=O)c2ccccc2C1=O | Active | Active |  |  | 
CC1=C(Br)C(=O)c2ccccc2C1=O | Active | Active | inactive | 1090 | 61
CCCCCCC1=C(O)C(=O)c2ccccc2C1=O | Active | Active |  |  | 
O=C1C=C(O)C(=O)c2ccccc21 | Active | Active |  |  | 
CC(C)(C)CC1=C(O)C(=O)c2ccccc2C1=O | Active | Active |  |  | 
CC(C)(O)CCC1=C(O)C(=O)c2ccccc2C1=O | inactive | inactive |  |  | 
CCCCCCCCCOC1=CC(=O)C(=O)c2ccccc21 | inactive | inactive |  |  | 
CC1=C(O)C(=O)c2ccccc2C1=O | Active | Active |  |  | 
CCC1=C(O)C(=O)c2ccccc2C1=O | Active | Active |  |  | 

More lines, now with the values ahead:

inhibition activity (active/not active) (Wolinella succinogenes [1]) | inhibition call (active/not active) (Wolinella succinogenes [2]) | inhibition [3] | IC50 [4] [nM] | IC50 [5] [nM] | SMILES
Active | Active |  |  |  | CCCCCCC1=C(OC)C(=O)c2ccccc2C1=O
Active | Active |  |  |  | CCCCCCCCCCC1=C(Br)C(=O)c2ccccc2C1=O
Active | Active |  |  |  | CCCCCCCCCCCCCCC1=C(O)C(=O)c2ccccc2C1=O
Active | Active |  |  |  | O=C1C(O)=C(CCCCC2CCCCC2)C(=O)c2ccccc21
Active | Active |  |  |  | O=C1C(O)=C(CCCC2CCCCC2)C(=O)c2ccccc21
Active | Active |  |  |  | CCCCCCCCCOC1=CC(=O)c2ccccc2C1=O
Active | Active | inactive | 604 | 612 | CCC1=C(Br)C(=O)c2ccccc2C1=O
